Laboratory results: ChEMBL document CHEMBL3751693, “Synthesis, antimicrobial evaluation and molecular modeling of 5-hydroxyisoquinolinium salt series; the effect of the hydroxyl moiety” (Bioorg Med Chem, 2016)

Legend:
Staphylococcus aureus [1] = test: Antimicrobial activity against clinical isolate Staphylococcus aureus CCM 451608 after 24 hrs; type: functional; settings: CCM 451608, 24 h
Staphylococcus aureus [2] = test: Antimicrobial activity against clinical isolate Staphylococcus aureus CCM 451608 after 48 hrs; type: functional; settings: CCM 451608, 48 h
Staphylococcus aureus [3] = test: Antimicrobial activity against clinical isolate methicillin-resistant Staphylococcus aureus H 599608 after 24 hrs; type: functional; settings: H 599608, 24 h
Staphylococcus aureus [4] = test: Antimicrobial activity against clinical isolate methicillin-resistant Staphylococcus aureus H 599608 after 48 hrs; type: functional; settings: H 599608, 48 h
[5] = system: Staphylococcus epidermidis; test: Antimicrobial activity against clinical isolate Staphylococcus epidermidis H 696608 after 24 hrs; type: functional; settings: H 696608, 24 h
[6] = system: Staphylococcus epidermidis; test: Antimicrobial activity against clinical isolate Staphylococcus epidermidis H 696608 after 48 hrs; type: functional; settings: H 696608, 48 h
Enterococcus sp. [7] = test: Antimicrobial activity against clinical isolate Enterococcus sp. J 1436508 after 24 hrs; type: functional; settings: J 1436508, 24 h
Enterococcus sp. [8] = test: Antimicrobial activity against clinical isolate Enterococcus sp. J 1436508 after 48 hrs; type: functional; settings: J 1436508, 48 h
Escherichia coli [9] = test: Antimicrobial activity against clinical isolate Escherichia coli CCM 4517 after 24 hrs; type: functional; settings: CCM 4517, 24 h
Escherichia coli [10] = test: Antimicrobial activity against clinical isolate Escherichia coli CCM 4517 after 48 hrs; type: functional; settings: CCM 4517, 48 h
Klebsiella pneumoniae [11] = test: Antimicrobial activity against clinical isolate Klebsiella pneumoniae D 1175008 after 24 hrs; type: functional; settings: D 1175008, 24 h
Klebsiella pneumoniae [12] = test: Antimicrobial activity against clinical isolate Klebsiella pneumoniae D 1175008 after 48 hrs; type: functional; settings: D 1175008, 48 h
Klebsiella pneumoniae [13] = test: Antimicrobial activity against clinical isolate ESBL-Klebsiella pneumoniae J 1436808 after 24 hrs; type: functional; settings: J 1436808, 24 h
Klebsiella pneumoniae [14] = test: Antimicrobial activity against clinical isolate ESBL-Klebsiella pneumoniae J 1436808 after 48 hrs; type: functional; settings: J 1436808, 48 h
Pseudomonas aeruginosa [15] = test: Antimicrobial activity against clinical isolate Pseudomonas aeruginosa CCM 1961 after 72 hrs; type: functional; settings: CCM 1961, 72 h
Pseudomonas aeruginosa [16] = test: Antimicrobial activity against clinical isolate Pseudomonas aeruginosa CCM 1961 after 120 hrs; type: functional; settings: CCM 1961, 120 h
Candida albicans [17] = test: Antimicrobial activity against Candida albicans ATCC 44859 after 24 hrs by spectrophotometry; type: functional; settings: ATCC 44859, 24 h
Aspergillus fumigatus [18] = test: Antimicrobial activity against Aspergillus fumigatus 231 after 24 hrs by spectrophotometry; type: functional; settings: Aspergillus fumigatus, 231, 24 h
Candida albicans [19] = test: Antimicrobial activity against Candida albicans ATCC 44859 after 48 hrs by spectrophotometry; type: functional; settings: ATCC 44859, 48 h
Candida tropicalis [20] = test: Antimicrobial activity against Candida tropicalis 156 after 24 hrs by spectrophotometry; type: functional; settings: Candida tropicalis, 156, 24 h
Candida tropicalis [21] = test: Antimicrobial activity against Candida tropicalis 156 after 48 hrs by spectrophotometry; type: functional; settings: Candida tropicalis, 156, 48 h
Pichia kudriavzevii [22] = test: Antimicrobial activity against Candida krusei E28 after 24 hrs by spectrophotometry; type: functional; settings: E28, 24 h
Pichia kudriavzevii [23] = test: Antimicrobial activity against Candida krusei E28 after 48 hrs by spectrophotometry; type: functional; settings: E28, 48 h
Nakaseomyces glabratus [24] = test: Antimicrobial activity against Candida glabrata 20/I after 24 hrs by spectrophotometry; type: functional
Nakaseomyces glabratus [25] = test: Antimicrobial activity against Candida glabrata 20/I after 48 hrs by spectrophotometry; type: functional
Trichosporon asahii [26] = test: Antimicrobial activity against Trichosporon asahii 1188 after 24 hrs by spectrophotometry; type: functional; settings: Trichosporon asahii, 1188, 24 h
Trichosporon asahii [27] = test: Antimicrobial activity against Trichosporon asahii 1188 after 48 hrs by spectrophotometry; type: functional; settings: Trichosporon asahii, 1188, 48 h
Aspergillus fumigatus [28] = test: Antimicrobial activity against Aspergillus fumigatus 231 after 48 hrs by spectrophotometry; type: functional; settings: Aspergillus fumigatus, 231, 48 h
Lichtheimia corymbifera [29] = test: Antimicrobial activity against Absidia corymbifera 272 after 24 hrs by spectrophotometry; type: functional; settings: Lichtheimia corymbifera, 272, 24 h
Lichtheimia corymbifera [30] = test: Antimicrobial activity against Absidia corymbifera 272 after 48 hrs by spectrophotometry; type: functional; settings: Lichtheimia corymbifera, 272, 48 h
[31] = system: Trichophyton mentagrophytes; test: Antimicrobial activity against Trichophyton mentagrophytes 445 after 72 hrs by spectrophotometry; type: functional; settings: Trichophyton mentagrophytes, 445, 72 h
[32] = system: Trichophyton mentagrophytes; test: Antimicrobial activity against Trichophyton mentagrophytes 445 after 120 hrs by spectrophotometry; type: functional; settings: Trichophyton mentagrophytes, 445, 120 h
[33] = Cytotoxicity against CHOK1 cells after 24 hrs by MTT assay; type: cell-based; settings: Cricetulus griseus, CHO-K1, 24 h

Compound `CCCCCCCCCCCCCC[N+](C)(C)Cc1ccccc1` has an MIC (Staphylococcus aureus [1]) of 1 µM, an MBC (Staphylococcus aureus [2]) of 3.9 µM and an MIC (Staphylococcus aureus [2]) of 1 µM. For the same compound, the MIC (Staphylococcus aureus [3]) was 2 µM, the MBC (Staphylococcus aureus [4]) was 3.9 µM and the MIC (Staphylococcus aureus [4]) was 2 µM. The MIC [5] was 1 µM, the MBC [6] was 1 µM and the MIC [6] was 1 µM. It also gave an MIC (Enterococcus sp. [7]) of 2 µM, an MBC (Enterococcus sp. [8]) of 7.8 µM and an MIC (Enterococcus sp. [8]) of 2 µM. The MIC (Escherichia coli [9]) was 7.8 µM, the MBC (Escherichia coli [10]) was 7.8 µM and the MIC (Escherichia coli [10]) was 7.8 µM. The MIC (Klebsiella pneumoniae [11]) was 7.8 µM, the MBC (Klebsiella pneumoniae [12]) was 7.8 µM and the MIC (Klebsiella pneumoniae [12]) was 7.8 µM. For the same compound, the MIC (Klebsiella pneumoniae [13]) was 7.8 µM, the MBC (Klebsiella pneumoniae [14]) was 7.8 µM and the MIC (Klebsiella pneumoniae [14]) was 7.8 µM. For the same compound, the MIC (Pseudomonas aeruginosa [15]) was 16 µM, the MBC (Pseudomonas aeruginosa [16]) was 63 µM and the MIC (Pseudomonas aeruginosa [16]) was 16 µM. The MIC (Candida albicans [17]) was 7.8 µM, the MIC (Aspergillus fumigatus [18]) was 7.8 µM and the MFC (Candida albicans [19]) was 125 µM. For the same compound, the MIC (Candida albicans [19]) was 7.8 µM, the MIC (Candida tropicalis [20]) was 3.9 µM and the MFC (Candida tropicalis [21]) was 125 µM. For the same compound, the MIC (Candida tropicalis [21]) was 3.9 µM, the MIC (Pichia kudriavzevii [22]) was 3.9 µM and the MFC (Pichia kudriavzevii [23]) was 125 µM. It also gave an MIC (Pichia kudriavzevii [23]) of 3.9 µM, an MIC (Nakaseomyces glabratus [24]) of 7.8 µM and an MFC (Nakaseomyces glabratus [25]) of 125 µM. For the same compound, the MIC (Nakaseomyces glabratus [25]) was 7.8 µM, the MIC (Trichosporon asahii [26]) was 31 µM and the MFC (Trichosporon asahii [27]) was 125 µM. It also gave an MIC (Trichosporon asahii [27]) of 31 µM, an MFC (Aspergillus fumigatus [28]) of 125 µM and an MIC (Aspergillus fumigatus [28]) of 16 µM. For the same compound, the MIC (Lichtheimia corymbifera [29]) was 31 µM, the MFC (Lichtheimia corymbifera [30]) was 125 µM and the MIC (Lichtheimia corymbifera [30]) was 31 µM. It also gave an MIC [31] of 16 µM, an MFC [32] of 16 µM and an MIC [32] of 16 µM. For the same compound, the IC50 [33] was 24 µM.
`CCCCCCCCCCCC[N+](C)(C)Cc1ccccc1` gave an MIC (Staphylococcus aureus [1]) of 0.5 µM, an MBC (Staphylococcus aureus [2]) of 2 µM and an MIC (Staphylococcus aureus [2]) of 2 µM. It also gave an MIC (Staphylococcus aureus [3]) of 0.5 µM, an MBC (Staphylococcus aureus [4]) of 1 µM and an MIC (Staphylococcus aureus [4]) of 0.5 µM. The MIC [5] was 0.5 µM, the MBC [6] was 0.5 µM and the MIC [6] was 0.5 µM. For the same compound, the MIC (Enterococcus sp. [7]) was 0.5 µM, the MBC (Enterococcus sp. [8]) was 1 µM and the MIC (Enterococcus sp. [8]) was 1 µM. It also gave an MIC (Escherichia coli [9]) of 0.5 µM, an MBC (Escherichia coli [10]) of 2 µM and an MIC (Escherichia coli [10]) of 2 µM. For the same compound, the MIC (Klebsiella pneumoniae [11]) was 0.5 µM, the MBC (Klebsiella pneumoniae [12]) was 0.5 µM and the MIC (Klebsiella pneumoniae [12]) was 0.5 µM. The MIC (Klebsiella pneumoniae [13]) was 1 µM, the MBC (Klebsiella pneumoniae [14]) was 1 µM and the MIC (Klebsiella pneumoniae [14]) was 1 µM. It also gave an MIC (Pseudomonas aeruginosa [15]) of 3.9 µM, an MBC (Pseudomonas aeruginosa [16]) of 7.8 µM and an MIC (Pseudomonas aeruginosa [16]) of 3.9 µM. For the same compound, the MIC (Candida albicans [17]) was 0.5 µM, the MIC (Aspergillus fumigatus [18]) was 1 µM and the MFC (Candida albicans [19]) was 1 µM. The MIC (Candida albicans [19]) was 0.5 µM, the MIC (Candida tropicalis [20]) was 0.5 µM and the MFC (Candida tropicalis [21]) was 1 µM. The MIC (Candida tropicalis [21]) was 0.5 µM, the MIC (Pichia kudriavzevii [22]) was 0.5 µM and the MFC (Pichia kudriavzevii [23]) was 0.5 µM. The MIC (Pichia kudriavzevii [23]) was 0.5 µM, the MIC (Nakaseomyces glabratus [24]) was 0.5 µM and the MFC (Nakaseomyces glabratus [25]) was 0.5 µM. It also gave an MIC (Nakaseomyces glabratus [25]) of 0.5 µM, an MIC (Trichosporon asahii [26]) of 0.5 µM and an MFC (Trichosporon asahii [27]) of 2 µM. It also gave an MIC (Trichosporon asahii [27]) of 2 µM, an MFC (Aspergillus fumigatus [28]) of 3.9 µM and an MIC (Aspergillus fumigatus [28]) of 3.9 µM. For the same compound, the MIC (Lichtheimia corymbifera [29]) was 7.8 µM, the MFC (Lichtheimia corymbifera [30]) was 7.8 µM and the MIC (Lichtheimia corymbifera [30]) was 7.8 µM. The MIC [31] was 1 µM, the MFC [32] was 2 µM and the MIC [32] was 1 µM. For the same compound, the IC50 [33] was 29 µM.
Compound `CCCCCCCCCCCCCCCC[N+](C)(C)Cc1ccccc1` has an MIC (Staphylococcus aureus [1]) of 1 µM, an MBC (Staphylococcus aureus [2]) of 3.9 µM and an MIC (Staphylococcus aureus [2]) of 1 µM. For the same compound, the MIC (Staphylococcus aureus [3]) was 2 µM, the MBC (Staphylococcus aureus [4]) was 3.9 µM and the MIC (Staphylococcus aureus [4]) was 2 µM. For the same compound, the MIC [5] was 0.5 µM, the MBC [6] was 3.9 µM and the MIC [6] was 0.5 µM. The MIC (Enterococcus sp. [7]) was 2 µM, the MBC (Enterococcus sp. [8]) was 3.9 µM and the MIC (Enterococcus sp. [8]) was 2 µM. For the same compound, the MIC (Escherichia coli [9]) was 7.8 µM, the MBC (Escherichia coli [10]) was 7.8 µM and the MIC (Escherichia coli [10]) was 7.8 µM. The MIC (Klebsiella pneumoniae [11]) was 7.8 µM, the MBC (Klebsiella pneumoniae [12]) was 7.8 µM and the MIC (Klebsiella pneumoniae [12]) was 7.8 µM. The MIC (Klebsiella pneumoniae [13]) was 7.8 µM, the MBC (Klebsiella pneumoniae [14]) was 7.8 µM and the MIC (Klebsiella pneumoniae [14]) was 7.8 µM. It also gave an MIC (Pseudomonas aeruginosa [15]) of 16 µM, an MBC (Pseudomonas aeruginosa [16]) of 125 µM and an MIC (Pseudomonas aeruginosa [16]) of 16 µM. The MIC (Candida albicans [17]) was 3.9 µM, the MIC (Aspergillus fumigatus [18]) was 7.8 µM and the MFC (Candida albicans [19]) was 7.8 µM. It also gave an MIC (Candida albicans [19]) of 7.83 µM, an MIC (Candida tropicalis [20]) of 3.9 µM and an MFC (Candida tropicalis [21]) of 7.8 µM. For the same compound, the MIC (Candida tropicalis [21]) was 7.8 µM, the MIC (Pichia kudriavzevii [22]) was 2 µM and the MFC (Pichia kudriavzevii [23]) was 2 µM. For the same compound, the MIC (Pichia kudriavzevii [23]) was 2 µM, the MIC (Nakaseomyces glabratus [24]) was 2 µM and the MFC (Nakaseomyces glabratus [25]) was 63 µM. For the same compound, the MIC (Nakaseomyces glabratus [25]) was 3.9 µM, the MIC (Trichosporon asahii [26]) was 7.8 µM and the MFC (Trichosporon asahii [27]) was 63 µM. For the same compound, the MIC (Trichosporon asahii [27]) was 7.8 µM, the MFC (Aspergillus fumigatus [28]) was 63 µM and the MIC (Aspergillus fumigatus [28]) was 7.8 µM. It also gave an MIC (Lichtheimia corymbifera [29]) of 7.8 µM, an MFC (Lichtheimia corymbifera [30]) of 63 µM and an MIC (Lichtheimia corymbifera [30]) of 7.8 µM. For the same compound, the MIC [31] was 7.8 µM, the MFC [32] was 63 µM and the MIC [32] was 7.8 µM. It also gave an IC50 [33] of 15 µM.
